# pIC50: −log10 of the molar value.
# Assays:
# MCF7 (breast) = experiment: In vitro cytotoxic activity MTT assay, MCF7; assay type: cell-based; conditions: Homo sapiens; MCF7 cells, exposed for 96 hours, 50% inhibition of cell proliferation; read-out: Cytotoxicity activity IC50, MCF7 (breast)
# Description: (§1) Compounds 1-16 were screened for their in vitro cytotoxic activity utilizing a 3-(4,5-dimethyl-thiazol-2-yl)-2,5-diphenyltetrazolium bromide (MTT) assay against selected cancer human cell lines consisting of PC3 (prostate), HCT116 (colon), A375 (melanoma), H1299 (lung), MIAPaCa-2 (pancreas), HL60 (leukemia), MCF7 (breast), MDA-MB-231 (breast) (T. Mosmann, J. Immunol. Meth., 1983, 65, 55-63). The cells were cultured at 37° C. in RMPI1640 medium supplemented with 10% fetal bovine serum, 50 IU/mL penicillin, and 50 μg/mL streptomycin in a 5% CO2 incubator. All cells were sub-cultured 3 times/week by trypsinisation. Viable cells were seeded and allowed to adhere for 12 hours before a test drug was added in 96-well plates at an initial density of 1.0×10^5 cells/mL. Tumor cell lines were separately exposed to various concentrations of the tested compounds followed by incubation at a temperature of 37° C. during 96 hours inside a medium of fresh RMPI 1640. Cells were subsequently incubated at 37° C. using MTT at 0.5 mg/mL during 4 hours. After removal of supernatant, formazan crystals were dissolved in isopropanol and the optical density was measured at 570 nm. CX-4945 was used as a positive control.
# HL60 (leukemia) = experiment: In vitro cytotoxic activity MTT assay, HL60; assay type: cell-based; conditions: Homo sapiens, HL-60; HL60 cells, exposed for 96 hours, 50% inhibition of cell proliferation; read-out: Cytotoxicity activity IC50, HL60 (leukemia)
# Description: as §1
# PC3 (prostate) = experiment: In vitro cytotoxic activity MTT assay, PC3; assay type: cell-based; conditions: Homo sapiens, PC-3; PC3 cells, exposed for 96 hours, 50% inhibition of cell proliferation; read-out: Cytotoxicity activity IC50, PC3 (prostate)
# Description: as §1
# MDA-MB-231 (breast) = experiment: In vitro cytotoxic activity MTT assay, MDA-MB-231; assay type: cell-based; conditions: Homo sapiens; MDA-MB-231 cells, exposed for 96 hours, 50% inhibition of cell proliferation; read-out: Cytotoxicity activity IC50, MDA-MB-231 (breast)
# Description: as §1
# [1] = molecular target: T1, recombinant human CK2 (RRββ-holoenzyme) (Homo sapiens, UniProt P68400); experiment: CK2 Kinase Assay (33P-ATP, filter plate); assay type: biochemical; conditions: recombinant human CK2, final ATP 15 μM, 10 min at 30° C.; read-out: protein kinase CK2 IC50
# T1 construct: purchased Millipore
# T1 sequence (P68400 whole entry): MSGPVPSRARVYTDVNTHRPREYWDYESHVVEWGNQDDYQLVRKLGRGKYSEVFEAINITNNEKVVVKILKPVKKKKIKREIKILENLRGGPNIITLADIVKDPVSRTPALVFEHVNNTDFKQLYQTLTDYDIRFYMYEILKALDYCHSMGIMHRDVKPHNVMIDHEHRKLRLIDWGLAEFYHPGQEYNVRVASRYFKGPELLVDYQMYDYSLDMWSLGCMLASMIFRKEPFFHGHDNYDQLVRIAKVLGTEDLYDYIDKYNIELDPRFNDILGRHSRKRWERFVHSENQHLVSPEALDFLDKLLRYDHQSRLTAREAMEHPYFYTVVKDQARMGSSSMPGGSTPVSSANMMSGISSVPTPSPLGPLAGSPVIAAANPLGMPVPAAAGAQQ
# T1 sequence (P67870 whole entry partner): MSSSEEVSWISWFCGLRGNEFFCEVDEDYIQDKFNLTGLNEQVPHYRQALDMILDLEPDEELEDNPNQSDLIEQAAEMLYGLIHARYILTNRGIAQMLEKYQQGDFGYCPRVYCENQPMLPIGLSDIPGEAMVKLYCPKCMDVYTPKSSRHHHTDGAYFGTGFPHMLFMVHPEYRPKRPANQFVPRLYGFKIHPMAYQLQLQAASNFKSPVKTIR
# Description: CK2 Kinase Assay was conducted using the protocol as described in Pierre F. et al; J. Med. Chem. 2011, 54, 635-654. The tested compounds in aqueous solution were added at a volume of 10 μL to a reaction mixture comprising 10 μL of assay dilution buffer (ADB; 20 mM MOPS, pH 7.2, 25 mM β-glycerol phosphate, 5 mM EGTA, 1 mM sodium orthovanadate, and 1 mM dithiothreitol), 10 μL of substrate peptide (RRRDDDSDDD, dissolved in ADB at a concentration of 1 mM), 10 μL of recombinant human CK2 (RRββ-holoenzyme, 25 ng dissolved in ADB; Millipore). Reactions were initiated by the addition of 10 μL of ATP solution (90% 75 mMMgCl2, 75 μM ATP (final ATP concentration:15 μM) dissolved in ADB; 10% [γ-33P] ATP (stock 1mCi/100 μL; 3000 Ci/mmol (Perkin-Elmer) and maintained for 10 min at 30° C. The reactions were quenched with 100 μL of 0.75% phosphoric acid and then transferred to and filtered through a phosphor cellulose filter plate (Millipore). After washing each well five times with 0.75% phosphoric acid, the plate was dried under vacuum for 5 min and, following the addition of 15 μL of scintillation fluid to each well, the residual radioactivity was measured using a Wallac […]. The IC50 values were derived from eight concentrations of test inhibitors.
# HCT116 (colon) = experiment: In vitro cytotoxic activity MTT assay, HCT116; assay type: cell-based; conditions: Homo sapiens, HCT-116; HCT116 cells, exposed for 96 hours, 50% inhibition of cell proliferation; read-out: Cytotoxicity activity IC50, HCT116 (colon)
# Description: as §1
# MIAPaCa-2 (pancreas) = experiment: In vitro cytotoxic activity MTT assay, MIAPaCa-2; assay type: cell-based; conditions: Homo sapiens, MIA PaCa-2; MIAPaCa-2 cells, exposed for 96 hours, 50% inhibition of cell proliferation; read-out: Cytotoxicity activity IC50, MIAPaCa-2 (pancreas)
# Description: as §1
# A375 (melanoma) = experiment: In vitro cytotoxic activity MTT assay, A375; assay type: cell-based; conditions: Homo sapiens, A-375; A375 cells, exposed for 96 hours, 50% inhibition of cell proliferation; read-out: Cytotoxicity activity IC50, A375 (melanoma)
# Description: as §1
# H1299 (lung) = experiment: In vitro cytotoxic activity MTT assay, H1299; assay type: cell-based; conditions: Homo sapiens, NCI-H1299; H1299 cells, exposed for 96 hours, 50% inhibition of cell proliferation; read-out: Cytotoxicity activity IC50, H1299 (lung)
# Description: as §1
compound,measurement,setting,value
"O=C(O)c1n[nH]c2c1nc(Nc1cccc(Cl)c1)c1ccncc12 [Compound 1, 5-((3-chlorophenyl)amino)-1H-pyrazolo[4,3-c][2,6]naphthyridine-3-carboxylic acid]",pIC50,MCF7 (breast),5.31
same,pIC50,HL60 (leukemia),5.52
same,pIC50,PC3 (prostate),5.74
same,pIC50,MDA-MB-231 (breast),5.39
same,pIC50,[1],7.51
same,pIC50,HCT116 (colon),5.72
same,pIC50,MIAPaCa-2 (pancreas),6.05
same,pIC50,A375 (melanoma),5.37
same,pIC50,H1299 (lung),5.66
